Experimental data: patent publication US7687486B2, “Selective estrogen receptor modulators” (Florida Agricultural & Mechanical University, priority 2003, dated 2010)
Counter-ions that a name gives are not always drawn. Like-named read-outs stand apart in the source and are kept apart here.

Experiments:
[1] = tested on: MCF-7 breast cancer cell line; assay: MCF-7 breast cancer cell proliferation assay (cell counting after about 72 hours); format: cell-based, human; conditions: about 72 hours incubation, HCl salts, read-out: IC50 (micromolar scale) MCF-7 breast cancer cell line
Procedure: MCF-7 (ATCC HTB-22) cells, purchased from ATCC (Rockville, Md.), were grown in RPMI medium 1640 with 10% FBS (GIBCO, Grand Island, N.Y.) and 1% Antibiotic-Antimycotic (GIBCO, Grand Island, N.Y.) in an incubator (NUAIRE NU-1500, Plymouth, Minn.) with 5% CO2 and 95% air at about 37° Celsius. Cells were grown as monolayer, doubling time is from about 19 to about 24 hours. The stock solution of the test compound was prepared at 1 mg/ml drug concentration. The stock solution was diluted serially to obtain the desired drug concentrations, of from about 20 to about 200 μg/ml. Plates with twelve wells (5 ml capacity/well) were employed for all the experiments. In a typical experiment, each well contained 1×10^5 initial cells and about 100 μl drug solution in a total volume of about 2 ml media. The final concentrations of compounds were from about 0 to about 100 μg/ml in triplicate sample wells. The plates were incubated at 5% CO2 and 37° C. for about 72 hours. After incubation, cells were washed with PBS 1×, treated by 0.5 ml trypsin-EDTA for about 10 minutes and the cells were suspended by adding about 1.5 ml medium. Cells were counted by using a hemacytometer under a microscope. The data was converted to micromolar concentration using the various molecular weights and represent the mean values and standard errors.
Tables 1-4 illustrate the IC50 (50% inhibitory concentration) values of compounds described in this application against the MCF-7 breast cancer cell line.

advanced breast cancer = conditions: cited from earlier work
breast cancer = conditions: adjuvant therapy; cited from earlier work
[2] = Table 2, Structure III compounds group
[3] = Table 3, Structure IV compounds group
[4] = Table 1, Structure II compounds group

| IC50 [1, 2] [µM] | IC50 [1, 3] [µM] | IC50 [1, 4] [µM] | Compound | further results |
| --- | --- | --- | --- | --- |
| 9.1 |  |  | C#CC1(O)CCC2C3CCc4cc(OCCN(C)C)ccc4C3CCC21C (stereo not drawn) [3-[2-dimethylamino]-ethoxy]-]-Δ^1,3,5(10)-estrien-17α-ethynyl-17β-ol] |  |
| 8.3 |  |  | C#CC1(O)CCC2C3CCc4cc(OCCN(C(C)C)C(C)C)ccc4C3CCC21C (stereo not drawn) [3-[2-diisopropylamino]-ethoxy]-]-Δ^1,3,5(10)-estrien-17α-ethynyl-17β-ol] |  |
|  | 9.2 |  | CC(C)N(CCOc1ccc2c(c1)CC[C@@H]1[C@@H]2CC[C@]2(C)C(=O)CC[C@@H]12)C(C)C [3-[2-diisopropylamino]-ethoxy]-]-Δ^1,3,5(10)-estrien-17-one] |  |
|  | 10.6 |  | 3-[2-pyrrolidinylamino]-ethoxy]-]-Δ^1,3,5(10)-estrien-17-one |  |
|  |  | 8.7 | CCN(CC)CCOc1ccc2c(c1)CC[C@@H]1[C@@H]2CC[C@]2(C)[C@@H](O)CC[C@@H]12 [(17β)-3-[2-diethylamino]-ethoxy]-]-Δ^1,3,5(10)-estrien-17-ol] |  |
| 6.4 |  |  | 3-[2-pyrrolidinylamino]-ethoxy]-]-Δ^1,3,5(10)-estrien-17α-ethynyl-17βol |  |
|  |  | 5.6 | CC(C)N(CCOc1ccc2c(c1)CC[C@@H]1[C@@H]2CC[C@]2(C)[C@@H](O)CC[C@@H]12)C(C)C [(17β)-3-[2-diisopropylamino]-ethoxy]-]-Δ^1,3,5(10)-estrien-17-ol] |  |
|  |  |  | CN(C)CCOc1ccc(/C(=C(/CCCl)c2ccccc2)c2ccccc2)cc1 [toremifene] | response rate (advanced breast cancer; toremifene 60 mg/day): 50%; response rate (advanced breast cancer; toremifene 200 mg/day): 48%; reduction in the recurrence of breast cancer (breast cancer): not found to exhibit a statistically significant reduction in the recurrence of breast cancer |
|  |  | 10.8 | C[C@]12CC[C@@H]3c4ccc(OCCN5CCCC5)cc4CC[C@H]3[C@@H]1CC[C@@H]2O [(17β)-3-[2-pyrrolidinylamino]-ethoxy]-]-Δ^1,3,5(10)-estrien-17-ol] |  |
| 6.1 |  |  | C#CC1(O)CCC2C3CCc4cc(OCCN5CCCCC5)ccc4C3CCC21C (stereo not drawn) [3-[2-piperidinyl]-ethoxy]-]-Δ^1,3,5(10)-estrien-17α-ethynyl-17β-ol] |  |
|  | 5.1 |  | C[C@]12CC[C@@H]3c4ccc(OCCN5CCCCC5)cc4CC[C@H]3[C@@H]1CCC2=O [3-[2-piperidinyl]-ethoxy]-]-Δ^1,3,5(10)-estrien-17-one] |  |
|  | 37.8 |  | CN(C)CCOc1ccc2c(c1)CC[C@@H]1[C@@H]2CC[C@]2(C)C(=O)CC[C@@H]12 [3-[2-dimethylamino]-ethoxy]-]-Δ^1,3,5(10)-estrien-17-one] |  |
|  |  | 4.1 | C[C@]12CC[C@@H]3c4ccc(OCCN5CCCCC5)cc4CC[C@H]3[C@@H]1CC[C@@H]2O [(17β)-3-[2-piperidinyl]-ethoxy]-]-Δ^1,3,5(10)-estrien-17-ol] |  |
| 21.5 |  |  | C#CC1(O)CCC2C3CCc4cc(OCCN5CCOCC5)ccc4C3CCC21C (stereo not drawn) [3-[2-morpholinyl]-ethoxy]-]-Δ^1,3,5(10)-estrien-17α-ethynyl-17β-ol] |  |
|  |  | 19.8 | C[C@]12CC[C@@H]3c4ccc(OCCN5CCOCC5)cc4CC[C@H]3[C@@H]1CC[C@@H]2O [(17β)-3-[2-morpholinyl]-ethoxy]-]-Δ^1,3,5(10)-estrien-17-ol] |  |
|  | 20.8 |  | C[C@]12CC[C@@H]3c4ccc(OCCN5CCOCC5)cc4CC[C@H]3[C@@H]1CCC2=O [3-[2-morpholinyl]-ethoxy]-]-Δ^1,3,5(10)-estrien-17-one] |  |
|  |  | 16.2 | CN(C)CCOc1ccc2c(c1)CC[C@@H]1[C@@H]2CC[C@]2(C)[C@@H](O)CC[C@@H]12 [(17β)-3-[2-dimethylamino]-ethoxy]-Δ^1,3,5(10)-estrien-17-ol] |  |
| 7.3 |  |  | C#C[C@]1(O)CC[C@H]2[C@@H]3CCc4cc(OCCN(CC)CC)ccc4[C@H]3CC[C@@]21C [3-[2-diethylamino]-ethoxy]-]-Δ^1,3,5(10)-estrien-17α-ethynyl-17β-ol] |  |
| 9.5 | 10.6 | 9 | CC/C(=C(\c1ccc(O)cc1)c1ccc(OCCN(C)C)cc1)c1ccccc1 [4-Hydroxytamoxifen HCl salt, Trans-4-Hydroxytamoxifen, reference compound] |  |
|  | 7.5 |  | CCN(CC)CCOc1ccc2c(c1)CC[C@@H]1[C@@H]2CC[C@]2(C)C(=O)CC[C@@H]12 [3-[2-diethylamino]-ethoxy]-]-Δ^1,3,5(10)-estrien-17-one] |  |
|  |  |  | CC/C(=C(\c1ccccc1)c1ccc(OCCN(C)C)cc1)c1ccccc1 [tamoxifen] | response rate (advanced breast cancer; tamoxifen 20 mg/day): 44% |
